We go through two molecules from US11225503B2, “Crystobactamides” (HELMHOLTZ-ZENTRUM FÜR INFEKTIONSFORSCHUNG GMBH, priority 2013, dated 2022).

≈ marks a conversion by molar mass, not a printed value. Bounds are passed on as bounds.

For test [1], the system named is Bacillus subtilis DSM-10. The experiment in a line: Susceptibility testing, MIC microdilution. Conditions: Bacillus subtilis, DSM10. The class given is cell-based. On the procedure: (§1) Bacterial wildtype strains used in susceptibility assays were either part of our strain collection or purchased from the German Collection of Microorganisms and Cell Cultures (DSMZ) or from the American Type Culture Collection (ATCC). E. coli strain WT^[6] and E. coli mutants were kindly provided by Prof. Dr. P. Heisig, Pharmaceutical Biology and Microbiology, University of Hamburg.
(§2) MIC values were determined in microdilution assays. Overnight cultures were diluted in the appropriate growth medium to achieve an inoculum of 10^4-10^6 cfu/mL. Yeasts were grown in Myc medium (1% phytone peptone, 1% glucose, 50 mM HEPES, pH 7.0), S. pneumonia and E. faecalis in tryptic soy broth (TSB: 1.7% peptone casein, 0.3% peptone soymeal, 0.25% glucose, 0.5% NaCl, 0.25% K2HPO4; pH 7.3); M. smegmatis in Middlebrook 7H9 medium supplemented with 10% Middlebrook ADC enrichment and 2 ml/l glycerol). All other listed bacteria were grown in Müller-Hinton broth (0.2% beef infusion solids, 1.75% casein hydrolysate, 0.15% starch, pH 7.4). Cystobactamides and reference drugs were added directly to the cultures in sterile 96-well plates as duplicates and serial dilutions were prepared. Microorganisms were grown on a microplate shaker (750 rpm, 30-37° C., 18-48 h), except S. pneumonia, which was grown at non-shaking conditions (37° C., 5% CO2, 18 h). Growth inhibition was assessed by visual inspection and the MIC was defined as the lowest concentration of compound that inhibited visible growth.
For orientation: Broth dilution looks for growth in wells or tubes with falling amounts of substance.

The subject of test [2] is Chromobacterium violaceum DSM-30191. Kind of test: Susceptibility testing, MIC microdilution. To be noted: Chromobacterium violaceum, DSM30191. The class given is cell-based. As to the method:
as §1, §2

In test [3] the test system is Enterobacter aerogenes DSM-30053. Kind of test: Susceptibility testing, MIC microdilution. The class given is cell-based. To be noted: Klebsiella aerogenes, DSM30053. On the procedure:
as §1, §2

Test [4] relates to Enterococcus faecalis ATCC29212. The experiment in a line: Susceptibility testing, MIC microdilution. The class given is cell-based. As to the method: as §1, §2
The subject of test [5] is Escherichia coli DSM-12242 (NAL^R). Kind of test: Susceptibility testing, MIC microdilution. To be noted: Escherichia coli, DSM12242. The class given is cell-based. As to the method: as §1, §2
Test [6] has as its system Klebsiella pneumoniae DSM-30104. Kind of test: Susceptibility testing, MIC microdilution. The class given is cell-based. Conditions: Klebsiella pneumoniae, DSM30104. On the procedure: as §1, §2
Test [7] concerns Micrococcus luteus DSM-1790. Kind of test: Susceptibility testing, MIC microdilution. The class given is cell-based. To be noted: Micrococcus luteus, DSM1790. On the procedure: as §1, §2
The test system of test [8] is Mycobacterium smegmatis mc^2155 ATCC700084. Kind of test: Susceptibility testing, MIC microdilution. Conditions: Mycolicibacterium smegmatis, ATCC700084|MC^2155. The class given is cell-based. As to the method: as §1, §2
Test [9] concerns E. coli WT. Kind of test: Susceptibility of mutant E. coli strains, MIC. To be noted: Escherichia coli. The class given is cell-based.
Text: (§3) Cystobactamides were screened using a panel of E. coli strains with typical mutations in gyrA and parC genes (Table 11).
High-level quinolone resistance often results from a combination of several target site mutations and altered efflux mechanisms. […] This, in turn, leads to overproduction of MarA and AcrAB and overexpression of the AcrAB efflux pump is associated with the MAR (multiple antibiotic resistance) phenotype.^[5]
as §1, §2

For test [10], the system named is E. coli strain WT-4 M2.1 (parC mutation). The experiment in a line: Susceptibility of mutant E. coli strains, MIC. The class given is cell-based. To be noted: Escherichia coli.
Text: as §3, §1, §2

In test [11] the test system is E. coli strain WT III (marR Δ74 bp). Kind of test: Susceptibility of mutant E. coli strains, MIC. The class given is cell-based. Conditions: Escherichia coli. On the procedure: as §1, §2
In test [12] the target is T1, H. sapiens topoisomerase II (Homo sapiens, UniProt P11388).
T1 construct: purchased Inspiralis (Norwich, UK)
The experiment in a line: Topoisomerase II relaxation (inhibition) assay. The class given is biochemical. To be noted: for IC50: H. sapiens Topoisomerase II inhibition assay, read-out: IC50. On the procedure: The topo II reactions were titrated with varying concentrations of A-D and resolved by agarose gel electrophoresis. For IC50 determination the band intensity of the supercoiled plasmid was determined using Adobe Photoshop, plotted vs. [cystobactamide] and fitted using Hill's equation.
(§4) Following natural product concentrations were used in the assay:
Control reactions were: no enzyme and a standard reaction in presence of 5% (v/v) DMSO. All reaction samples were equilibrated for 10 minutes at room-temperature in the absence of DNA. Then the relaxed plasmid was added to start the reaction.
(§5) To determine IC50 values, the formation of supercoiled (gyrase) or relaxed (topoisomerase I, II IV) plasmid was quantified using Adobe Photoshop (Histogram mode). Plotting of these values versus the compound concentration yielded sigmoidal shaped curves, which were fitted using Hill's equation (Origin Pro 8.5). All determined IC50 values are the averages of three independent experiments.

The target in test [13] is T2, H. sapiens topoisomerase I (Homo sapiens, UniProt P11387).
T2 construct: purchased Inspiralis (Norwich, UK)
T2 sequence (P11387 1-765): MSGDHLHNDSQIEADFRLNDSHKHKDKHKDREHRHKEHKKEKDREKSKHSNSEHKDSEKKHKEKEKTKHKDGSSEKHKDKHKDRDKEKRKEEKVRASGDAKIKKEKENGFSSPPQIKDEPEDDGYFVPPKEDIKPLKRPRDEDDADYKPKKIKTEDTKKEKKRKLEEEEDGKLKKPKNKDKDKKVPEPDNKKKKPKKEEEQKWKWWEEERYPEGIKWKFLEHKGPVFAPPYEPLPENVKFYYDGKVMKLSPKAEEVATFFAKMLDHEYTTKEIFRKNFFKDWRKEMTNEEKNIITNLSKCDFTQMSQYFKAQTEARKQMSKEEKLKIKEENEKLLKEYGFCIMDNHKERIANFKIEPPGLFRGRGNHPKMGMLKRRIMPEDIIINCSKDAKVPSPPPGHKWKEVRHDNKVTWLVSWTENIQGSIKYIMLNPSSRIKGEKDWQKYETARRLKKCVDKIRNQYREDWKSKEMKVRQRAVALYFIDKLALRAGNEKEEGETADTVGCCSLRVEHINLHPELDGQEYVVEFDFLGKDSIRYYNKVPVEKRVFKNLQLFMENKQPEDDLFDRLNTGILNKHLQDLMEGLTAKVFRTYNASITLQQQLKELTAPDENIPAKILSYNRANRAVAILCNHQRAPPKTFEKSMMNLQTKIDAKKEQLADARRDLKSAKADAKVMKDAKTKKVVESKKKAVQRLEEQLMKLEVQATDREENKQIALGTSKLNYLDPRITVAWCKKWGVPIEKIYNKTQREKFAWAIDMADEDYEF
The experiment in a line: Topoisomerase I relaxation (inhibition) assay. The class given is biochemical. As to the method:
Aside the ATP-dependent type IIa topoisomerases like E. coli gyrase, topoIV and human topoII, the activity of cystobactamides on the ATP-independent human topoisomerase I was tested as well.
The topo I reactions were titrated with varying concentrations of A-D and resolved by agarose gel electrophoresis. For IC50 determination the band intensity of the supercoiled plasmid was determined using Adobe Photoshop, plotted vs. [cystobactamide] and fitted using Hill's equation.
as §4
Cystobactamide C: 300 μM; 30 μM; 3 μM
Control reactions were: no enzyme and a standard reaction in presence of 5% (v/v) DMSO. All reaction samples were equilibrated for 10 minutes at room-temperature in the absence of DNA. Then the relaxed plasmid was added to start the reaction
as §5

T1 sequence (P11388 whole entry): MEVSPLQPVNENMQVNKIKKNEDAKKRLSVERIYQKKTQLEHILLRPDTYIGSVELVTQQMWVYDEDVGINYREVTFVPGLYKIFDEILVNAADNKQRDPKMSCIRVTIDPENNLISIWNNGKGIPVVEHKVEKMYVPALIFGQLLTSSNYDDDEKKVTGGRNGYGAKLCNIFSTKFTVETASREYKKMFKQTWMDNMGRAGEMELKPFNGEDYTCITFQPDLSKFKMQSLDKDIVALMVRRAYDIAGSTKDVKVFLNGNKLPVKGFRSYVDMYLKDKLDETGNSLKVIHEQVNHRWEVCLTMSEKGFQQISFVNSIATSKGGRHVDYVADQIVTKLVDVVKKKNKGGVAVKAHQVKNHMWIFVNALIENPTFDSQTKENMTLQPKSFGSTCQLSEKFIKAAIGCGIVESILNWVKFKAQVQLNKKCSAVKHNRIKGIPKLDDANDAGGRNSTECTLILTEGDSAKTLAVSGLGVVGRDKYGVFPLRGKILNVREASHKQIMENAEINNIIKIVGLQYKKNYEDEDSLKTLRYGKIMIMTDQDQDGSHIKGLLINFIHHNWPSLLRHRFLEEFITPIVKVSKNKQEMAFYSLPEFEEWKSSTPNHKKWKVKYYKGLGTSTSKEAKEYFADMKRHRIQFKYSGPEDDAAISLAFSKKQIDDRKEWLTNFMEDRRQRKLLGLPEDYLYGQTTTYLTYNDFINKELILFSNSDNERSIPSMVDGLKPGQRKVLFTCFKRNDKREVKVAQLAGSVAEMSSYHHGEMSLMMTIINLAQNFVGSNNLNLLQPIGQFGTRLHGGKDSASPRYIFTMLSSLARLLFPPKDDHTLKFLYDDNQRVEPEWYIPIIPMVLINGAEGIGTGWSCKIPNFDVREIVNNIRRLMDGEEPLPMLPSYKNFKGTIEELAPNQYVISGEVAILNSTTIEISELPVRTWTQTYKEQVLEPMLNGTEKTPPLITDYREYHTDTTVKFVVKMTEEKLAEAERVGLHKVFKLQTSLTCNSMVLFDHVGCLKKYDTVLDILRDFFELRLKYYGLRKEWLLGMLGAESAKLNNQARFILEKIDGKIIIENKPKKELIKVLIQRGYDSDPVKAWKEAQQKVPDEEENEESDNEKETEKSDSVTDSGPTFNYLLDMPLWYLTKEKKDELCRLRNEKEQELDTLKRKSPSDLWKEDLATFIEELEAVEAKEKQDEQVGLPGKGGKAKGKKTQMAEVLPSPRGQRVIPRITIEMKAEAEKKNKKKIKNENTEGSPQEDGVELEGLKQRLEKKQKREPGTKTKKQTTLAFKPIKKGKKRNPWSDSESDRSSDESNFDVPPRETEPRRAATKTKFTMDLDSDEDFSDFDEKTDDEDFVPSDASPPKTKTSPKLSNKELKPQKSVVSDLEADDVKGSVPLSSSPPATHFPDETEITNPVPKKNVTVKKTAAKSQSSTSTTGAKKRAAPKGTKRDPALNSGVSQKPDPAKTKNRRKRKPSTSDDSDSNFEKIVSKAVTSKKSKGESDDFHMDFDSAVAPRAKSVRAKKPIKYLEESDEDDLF

`CO[C@H](C(=O)Nc1ccc(C(=O)Nc2ccc(C(=O)Nc3ccc(C(=O)O)cc3OC(C)C)c(O)c2OC(C)C)cc1)[C@H](NC(=O)c1ccc(NC(=O)c2ccc([N+](=O)[O-])cc2)cc1)C(=O)O` [cystobactamide A, Cystobactamide A]: the minimal inhibitory concentration (MIC) – broadly, the smallest concentration in the dilution series that meets the test's criterion for growth inhibition – in [1] is 0.12 µg/mL (≈ 0.13 µM); in test [2], greater than 59 µg/mL; in test [3] it was greater than 59 µg/mL; in test [4], 0.06 µg/mL (≈ 0.0652 µM); in test [5], 0.9 µg/mL (≈ 0.977 µM); in test [6], greater than 59 µg/mL. In addition, the MIC in test [7] is 0.06 µg/mL (≈ 0.0652 µM); in test [8], greater than 59 µg/mL; in test [9], 0.5 µg/mL; in test [10] it was 0.5 µg/mL (≈ 0.543 µM); in [11], 14.7 µg/mL (≈ 16 µM). The results for the IC50 in test [12] and in test [13] were greater than 160 µM and roughly 1 µM, respectively. Also, in test [12], the “concentration at which human topo II activity was inhibited (only the highest tested concentration)” value was determined as 815 µM.

Turning to `CC(C)Oc1cc(C(=O)O)ccc1NC(=O)c1ccc(NC(=O)c2ccc(N)cc2)c(OC(C)C)c1O` [cystobactamide C, Cystobactamide C], the MIC in [1] was 2 µg/mL (≈ 3.94 µM); in test [2], 16.3 µg/mL (≈ 32.1 µM); in [3] it was greater than 33 µg/mL; in test [4], 4.1 µg/mL (≈ 8.08 µM); in test [5] it was 8.1 µg/mL (≈ 16 µM); in [6], 65 µg/mL (≈ 128 µM). Further, the MIC was 4.1 µg/mL (≈ 8.08 µM) in test [7]; greater than 65 µg/mL in [8]; 8.1 µg/mL in test [9]; 8.1 µg/mL (≈ 16 µM) in [10]; 65 µg/mL (≈ 128 µM) in test [11]. The IC50 (usually the concentration at which inhibition is half-maximal) was greater than 60 µM in [12] and roughly 6 µM in [13]. Further, in [12], the “concentration at which human topo II activity was inhibited (only the highest tested concentration)” value came to 300 µM.
